From patent US11008292B2, “FGFR4 inhibitor and preparation method and use thereof” (GUANGDONG ZHONGSHENG PHARMACEUTICAL CO., LTD, priority 2016, dated 2021) come the findings set out here.

Where two headings read alike, the source gives them in different places.

The target of one data set is T1, FGFR4 kinases (Homo sapiens, UniProt P22455).
T1 construct: purchased Life technology
The data set is described as follows: In vitro enzyme activity test, Z′-LYTE Assay, FGFR4 enzymatic reaction. The format is biochemical. To be noted: for IC50: Z′-LYTE detection, 150 μM ATP. The method, then:
(§1) The inhibitory effects of the compounds on FGFR4 kinases were assessed by detecting the enzymatic activities through Z′-LYTE® Assay, with the IC50 value of the compound as the indicator. This activity test was performed by Life technology.
(§2) The test compounds were diluted in a concentration gradient of 3-times, the final concentrations were 10 concentrations ranging from 10 μM to 0.5 nM, with double hole for each concentration; the content of DMSO in the detection reaction was 1%.
FGFR4 Enzymatic Reaction:
[…] The detection plate was Bar-coded Corning, low volume NBS, black 384-well plate, reaction conducted at room temperature for 60 minutes, and the reaction system was 10μμL.
(§3) To the kinase reaction solution was added 5 μL Development reagent B (1:64) to stop the reaction and incubated at 23° C. for 60 minutes, reading the plate with Envision instrument.
(§4) Data was transformed into the phosphorylation rate and the inhibitory rate by curve fitting with Model 205 in XLFIT (iDBS) to obtain the IC50 data of the compounds. It was set as 0% if the bottom of the curve was not in the range of −20% to 20%; otherwise it was set as 100% if the top of the curve was not in the range of 70% to 130%.

The next data set concerns the target T2, FGFR1 protein kinase (Homo sapiens, UniProt P11362).
T2 construct: purchased Life technology
The data set is described as follows: In vitro enzyme activity test, Z′-LYTE Assay, FGFR1 enzymatic reaction. The format is biochemical. The following applies: Z′-LYTE detection; 25 μM ATP. The method, then:
as §1, §2
FGFR1 Enzymatic Reaction:
1 nM FGFR1 protein kinase, 2 μM Tyr4 peptide, 25 μM ATP, 50 mM HEPES (pH 7.5), 10 mM MgCl2, 1 mM EGTA, 0.01% BRIJ-35, 2 mM MnCl2, 1 mM DTT. The detection plate was Black Proxiplate 384-Plus plate (PerkinElmer), reaction conducted at room temperature for 60 minutes, and the reaction system was 10μμL.
as §3, §4

Data set [1] can be described thus: Pharmacokinetic evaluation in mice (IV and oral gavage). Format: in vivo, female Balb/c nude mice. The following applies: female Balb/c nude mice; for F (bioavailability; oral absorption ratio): PO gavage 10 mg/kg vs IV 2 mg/kg; for clearance: read-out: Cl (plasma clearance); for half-life: read-out: T1/2 (elimination half-life) (converted); for Vd: read-out: Vdss (steady-state apparent volume of distribution). The method, then:
[…] The test compound suspended in the corresponding solvent at 1 mg/ml was administered by gavage to female Balb/c nude mice (fasted overnight, at an age of 7-9 weeks), with a dosage of 10 mg/kg. Two groups of animals were both blood sampled about 30 μL from jugular vein or tail vein at 0.0833, 0.25, 0.5, 1.0, 2.0, 4.0, 6.0, 8.0 and 24 h post-administration, which was placed into an anticoagulant tube charged with EDTA-K2, and plasma was separated by centrifugation. Plasma concentrations were determined by LC-MS/MS process using WinNonlin™ Version 6.3 (Pharsight, Mountain View, Calif.) pharmacokinetic software, calculating the related pharmacokinetic parameters with a linear logarithmic trapezoidal method for […] models.

The mark [2] stands for this setting: mouse, plasma, IV tail vein 2 mg/kg.
Setting [3] is: mouse, plasma, IV tail vein 0.2 mg/kg.

T1 sequence (P22455 22-802): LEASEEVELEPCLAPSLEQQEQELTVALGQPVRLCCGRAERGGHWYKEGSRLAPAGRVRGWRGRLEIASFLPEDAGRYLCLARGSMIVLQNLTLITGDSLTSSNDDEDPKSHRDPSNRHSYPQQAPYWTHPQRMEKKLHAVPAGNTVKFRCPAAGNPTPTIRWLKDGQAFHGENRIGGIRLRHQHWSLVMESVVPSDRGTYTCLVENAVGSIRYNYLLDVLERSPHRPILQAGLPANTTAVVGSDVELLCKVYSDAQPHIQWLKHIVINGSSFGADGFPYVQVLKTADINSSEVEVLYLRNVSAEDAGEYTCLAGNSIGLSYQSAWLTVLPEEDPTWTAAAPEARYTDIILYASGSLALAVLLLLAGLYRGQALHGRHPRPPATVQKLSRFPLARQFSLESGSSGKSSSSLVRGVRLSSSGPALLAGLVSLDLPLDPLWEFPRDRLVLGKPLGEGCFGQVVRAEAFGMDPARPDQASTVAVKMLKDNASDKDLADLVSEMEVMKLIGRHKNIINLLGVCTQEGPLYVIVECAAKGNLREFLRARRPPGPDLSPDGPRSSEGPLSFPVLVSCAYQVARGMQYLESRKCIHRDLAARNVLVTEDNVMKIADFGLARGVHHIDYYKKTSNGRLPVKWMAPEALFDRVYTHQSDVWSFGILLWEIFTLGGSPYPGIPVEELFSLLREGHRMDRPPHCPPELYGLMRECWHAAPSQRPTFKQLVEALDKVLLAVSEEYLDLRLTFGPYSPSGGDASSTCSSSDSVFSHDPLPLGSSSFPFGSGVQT
T2 sequence (P11362 22-822): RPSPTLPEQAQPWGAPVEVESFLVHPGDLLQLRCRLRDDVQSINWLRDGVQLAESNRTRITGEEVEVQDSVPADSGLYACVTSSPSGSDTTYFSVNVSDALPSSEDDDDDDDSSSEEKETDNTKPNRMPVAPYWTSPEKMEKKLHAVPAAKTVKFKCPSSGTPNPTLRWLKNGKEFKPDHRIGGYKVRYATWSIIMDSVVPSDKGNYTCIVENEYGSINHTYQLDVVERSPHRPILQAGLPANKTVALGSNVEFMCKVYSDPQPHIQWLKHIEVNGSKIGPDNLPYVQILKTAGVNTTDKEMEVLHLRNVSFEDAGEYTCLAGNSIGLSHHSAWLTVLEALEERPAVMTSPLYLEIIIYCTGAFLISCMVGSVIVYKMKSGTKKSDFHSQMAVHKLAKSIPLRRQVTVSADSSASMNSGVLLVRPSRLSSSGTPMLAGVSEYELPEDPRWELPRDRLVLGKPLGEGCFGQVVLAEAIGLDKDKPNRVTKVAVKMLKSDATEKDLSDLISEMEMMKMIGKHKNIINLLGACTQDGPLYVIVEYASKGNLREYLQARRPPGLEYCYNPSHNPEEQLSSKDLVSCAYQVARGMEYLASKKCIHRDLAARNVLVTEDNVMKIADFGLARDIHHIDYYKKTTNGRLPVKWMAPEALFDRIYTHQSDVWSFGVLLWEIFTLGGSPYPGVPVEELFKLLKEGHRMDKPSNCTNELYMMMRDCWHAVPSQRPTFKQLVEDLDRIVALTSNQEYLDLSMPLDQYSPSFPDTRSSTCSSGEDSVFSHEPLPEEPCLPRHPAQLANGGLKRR

By IC50 is commonly meant the concentration needed to halve the response being measured. As to `C=CC(=O)Nc1cccc(C)c1Nc1ccc(/C(F)=C/c2cc(OC)cc(OC)c2)cn1` [Control example 1, reference compound], the IC50 on FGFR4 kinases is 8060 nM; against FGFR1 protein kinase, more than 10 µM.
With `C=CC(=O)Nc1cc(N2CCN(CC)CC2)cc(C)c1Nc1ncc(/C=C/c2c(Cl)c(OC)cc(OC)c2Cl)cn1` [Control example 2, reference compound], the IC50 against FGFR4 kinases was determined as 14 nM; at FGFR1 protein kinase, 2.97 µM.
As for `C=CC(=O)N[C@H]1COC[C@H]1Nc1ncc(/C=C/c2c(Cl)c(OC)cc(OC)c2Cl)cn1` [Control example 3, reference compound], the IC50 at FGFR4 kinases is 408 nM. This lies in the sub-micromolar range.
Usually AUC(0-t) stands for the area under the concentration-time curve up to a stated or last time point. A low value points to low exposure. Turning to `C=CC(=O)N[C@H]1CCOC[C@H]1Nc1ncc(OCc2c(F)c(OC)cc(OC)c2F)cn1` [Control example 4], the “F (bioavailability; oral absorption ratio)” value in data set [1] was 0%. In data set [1] (setting [2]), the exposure AUC(0-t) worked out at 0.958 µM·h, the clearance came out at 77.1 mL/min/kg, the half-life is 6.84 min and the Vd is 0.533 L/kg.
For `C=CC(=O)Nc1cccc(C)c1Nc1ncc(OCc2c(Cl)c(OC)cc(OC)c2Cl)cn1` [Control example 5], the “F (bioavailability; oral absorption ratio)” value in data set [1] came out at 0%. In addition, in data set [1] (setting [2]), the exposure AUC(0-t) turned out to be 0.528 µM·h, the clearance was found to be 127 mL/min/kg, the half-life was 13.3 min and the Vd was 1.28 L/kg.
In the same order, the values of `C=CC(=O)Nc1cccc(C)c1Nc1ncc(OCc2c(F)c(OC)cc(OC)c2F)cn1` [Control example 6] are 0%, 0.388 µM·h, 186 mL/min/kg, 14.1 min and 2.44 L/kg.
What is called bioavailability is dose-corrected exposure relative to a reference, in per cent. In the case of `C=CC(=O)N[C@H]1COC[C@H]1Nc1ncc(OCc2c(F)c(OC)cc(OC)c2F)cn1` [Control example 7], in data set [1] (IV tail vein 0.2 mg/kg), the “Cl (plasma clearance)” value was found to be 65 mL/min/kg. In addition, in data set [1] (setting [3]), the AUC(0-t) came to 0.113 µM·h, the half-life is 6.54 min and the Vd was determined as 0.581 L/kg. Besides, the bioavailability in data set [1] (mouse, plasma, PO gavage 1.0 mg/kg vs IV 0.2 mg/kg, read-out: F (bioavailability)) is 0%.
For orientation: Tmax means the time from dosing to the highest level. As for `C=CC(=O)N[C@H]1COC[C@H]1Nc1ncc(OCc2c(Cl)c(OC)cc(OC)c2Cl)cn1` [Control example 8], the “F (bioavailability; oral absorption ratio)” value in data set [1] turned out to be 12.3%. For the same molecule, in data set [1] (setting [2]), the exposure AUC(0-t) came out at 1.8 µM·h, the clearance came out at 39.7 mL/min/kg, the half-life was 9.24 min and the Vd stood at 0.407 L/kg. The molecule further returned an AUC(0-t) in data set [1] (mouse, plasma, PO gavage 10 mg/kg) of 1.1 µM·h. Also, the Cmax in data set [1] (mouse, plasma, PO gavage 10 mg/kg, read-out: Cmax (peak concentration)) was found to be 2710 nM. Moreover, the Tmax in data set [1] (mouse, plasma, PO gavage 10 mg/kg, read-out: Tmax (time to peak)) came out at 15 min.
On to `C=CC(=O)Nc1cccc(C)c1Nc1ccc(/C(F)=C/c2c(Cl)c(OC)cc(OC)c2Cl)cn1` [Example 1], for which the IC50 on FGFR4 kinases was 112 nM; against FGFR1 protein kinase it was more than 10 µM. Moreover, on FGFR4 kinases (ratio to control example 1), the “FGFR4 inhibitory activity enhanced compared with the control example 1” value is listed as 70 times.
Take `C=CC(=O)Nc1cccc(C)c1Nc1cnc(/C(F)=C/c2c(Cl)c(OC)cc(OC)c2Cl)cn1` [Example 5]: the IC50 at FGFR4 kinases came out at 203 nM.
Turning to `C=CC(=O)Nc1cccc(C)c1Nc1ccc(/C(F)=C(\C)c2c(Cl)c(OC)cc(OC)c2Cl)cn1` [Example 10], the IC50 against FGFR4 kinases amounted to 544 nM.
Same read-out and setting: then `C=CC(=O)Nc1cc(F)c(F)cc1Nc1ccc(/C=C(\F)c2c(Cl)c(OC)cc(OC)c2Cl)cn1` [Example 22], with 575 nM.
The molecule `C=CC(=O)Nc1cccc(Cl)c1Nc1ccc(/C=C(\F)c2c(Cl)c(OC)cc(OC)c2Cl)cn1` [Example 23] displayed an IC50 on FGFR4 kinases of 387 nM.
On to `C=CC(=O)Nc1cc(N2CCN(C(C)=O)CC2)cc(C)c1Nc1ncc(/C=C(\F)c2c(Cl)c(OC)cc(OC)c2Cl)cn1` [Example 26], for which, at FGFR4 kinases, 13 nM corresponded to half-maximal inhibition (IC50).
As to `C=CC(=O)Nc1cc(F)cc(C)c1Nc1ccc(/C=C(\F)c2c(Cl)c(OC)cc(OC)c2Cl)cn1` [Example 29], the IC50 at FGFR4 kinases was found to be 268 nM. Compared with the last molecule, the IC50 is about 21-fold higher.
Same read-out and setting: under `C=CC(=O)Nc1cc(F)cc(C)c1Nc1ncc(/C=C(\F)c2c(Cl)c(OC)cc(OC)c2Cl)cn1` [Example 30] stands 238 nM.
Consider `C=CC(=O)N[C@@H]1COC[C@@H]1Nc1ncc(/C(F)=C/c2c(Cl)c(OC)cc(OC)c2Cl)cn1` [Example 32], for which half-maximal inhibition against FGFR4 kinases (IC50) was put at 361 nM.
Take `C=CC(=O)NC1CN(C(C)=O)CC1Nc1ncc(/C=C(\F)c2c(Cl)c(OC)cc(OC)c2Cl)cn1` (stereo not drawn) [Example 34]: on FGFR4 kinases, the IC50 came out at 199 nM.
